Values quoted from earlier work, collected in patent US20150104527A1, “AQUEOUS IONIC SOLUTION CONTAINING SEAWATER AND AT LEAST ONE COMPOUND THAT IS ORIGINALLY IMMISCIBLE WITH SEA WATER” (LABORATOIRE DE LA MER, priority 2011, published 2015).

What was measured:
human neutrophiles = settings: even at low concentration; Boston et al, 2003
nasal mucus membrane = settings: observed in patients even for short use; Graf P et al, 1999

effect on the nasal mucus membrane (nasal mucus membrane): deleterious effects
Substance: benzalkonium chloride
toxicity for human neutrophiles (human neutrophiles): toxic
